Among the data in ChEMBL document CHEMBL3132826, “Investigation of a tetrahydroisoquinoline scaffold as dual-action steroid sulfatase inhibitors generated by parallel solid-phase synthesis” (Medchemcomm, 2013) are Activity, inhibition and logP values, retold here.

Structures are written as SMILES.

The test system of data set [1] is MCF7. The data set is described as follows: Estrogenic activity in human MCF7 cells assessed as cell proliferation at 1 uM by MTS assay relative to basal level. In kind it is ADME, cell-based. The conditions noted are these: mcf7, 1 µM.
The subject of data set [2] is MCF7. The data set is described as follows: Estrogenic activity in human MCF7 cells assessed as cell proliferation at 0.01 uM by MTS assay relative to basal level. Conditions: mcf7, 0.01 µM. In kind it is ADME, cell-based.
Data set [3] has as its system MCF7. In words: Estrogenic activity in human MCF7 cells assessed as cell proliferation at 0.1 uM by MTS assay relative to basal level. The conditions noted are these: mcf7, 0.1 µM. In kind it is ADME, cell-based.
Data set [4] is described as follows: Estrogenic activity in human Saos2 cells assessed as increase in alkaline phosphatase activity at 1 nM. In kind it is ADME, cell-based. The conditions noted are these: saos-2, 0.001 µM.
The nature of data set [5]: Estrogenic activity in human Saos2 cells assessed as cell proliferation at 1 uM. It counts as ADME, cell-based. Conditions: saos-2, 1 µM.
Data set [6] has as its system MCF7. The data set is described as follows: Estrogenic activity in human MCF7 cells assessed as cell proliferation at 0.1 nM by MTS assay relative to basal level. In kind it is ADME, cell-based. Conditions: mcf7, 0.0001 µM.
In data set [7] the target is T1, Steryl-sulfatase (Homo sapiens) (UniProt P08842).
T1 sequence (whole entry): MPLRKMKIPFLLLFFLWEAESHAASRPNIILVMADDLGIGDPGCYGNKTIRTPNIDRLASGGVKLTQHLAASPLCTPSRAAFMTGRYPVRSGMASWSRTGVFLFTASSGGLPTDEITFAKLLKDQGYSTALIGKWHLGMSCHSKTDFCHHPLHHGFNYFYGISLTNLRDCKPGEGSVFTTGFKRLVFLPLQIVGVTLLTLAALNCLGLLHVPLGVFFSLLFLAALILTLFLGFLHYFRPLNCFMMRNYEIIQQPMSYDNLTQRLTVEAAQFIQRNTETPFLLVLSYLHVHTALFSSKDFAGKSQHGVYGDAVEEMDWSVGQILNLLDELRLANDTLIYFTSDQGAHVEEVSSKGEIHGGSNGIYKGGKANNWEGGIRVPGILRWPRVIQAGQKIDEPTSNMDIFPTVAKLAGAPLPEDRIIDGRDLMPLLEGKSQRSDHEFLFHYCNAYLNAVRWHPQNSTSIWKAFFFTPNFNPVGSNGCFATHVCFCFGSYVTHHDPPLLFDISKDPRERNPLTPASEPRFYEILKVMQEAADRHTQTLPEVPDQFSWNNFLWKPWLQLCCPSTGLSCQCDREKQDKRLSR
The data set is described as follows: Inhibition of STS (unknown origin) expressed in HEK-293 cells assessed as transformation of [3H]-E1S into E1 at 1 uM by […]. It counts as cell-based. Conditions: HEK293.

The target in data set [8] is T1, Steryl-sulfatase (Homo sapiens). In words: Inhibition of STS (unknown origin) expressed in HEK-293 cells assessed as transformation of [3H]-E1S into E1 at 0.1 uM by […]. It counts as cell-based. Conditions: HEK293.
A short description of data set [9]: Lipophilicity, log P of the compound. Conditions: octanol/water. It counts as physicochemical.

Take `CCN(Cc1ccc(Br)cc1)c1cccc(C(=O)N2CCc3ccc(O)cc3C2)c1`: the Activity is recorded as 5.5% in [1], 0% in data set [2] and 0% in data set [3].

`O=C(c1cccc(N2CCc3ccccc3C2)c1)N1CCc2ccc(O)cc2C1`: the Activity in [1] is given as 14.7%; in data set [2], 0%; in data set [3], 0%.

On to `CCN(Cc1ccncc1)c1cccc(C(=O)N2CCc3ccc(O)cc3C2)c1`, for which the results for the Activity in data set [1], in data set [2] and in [3] were 12.8%, 6% and 0%, respectively.

For the molecule `CN(C)CCN(CCN(C)C)c1ccc(C(=O)N2CCc3ccc(O)cc3C2)cc1`, the Activity in data set [1] was determined as 4.5%; in [2], 0%; in [3] it was 0%.

Regarding `CC(C)CCN(CCC(C)C)c1cccc(C(=O)N2CCc3ccc(O)cc3C2)c1`, the Activity in data set [1] is reported as 10.6%; in data set [2], 0%; in data set [3], 0%.

Take `CCN(Cc1ccncc1)c1ccc(C(=O)N2CCc3ccc(O)cc3C2)cc1`: the Activity is listed as 0% in [1]; 0% in data set [2]; 0% in [3]; 133% in data set [4]; “Toxic” in data set [5].

In the case of `O=C(c1cccc(N(CCO)Cc2ccccc2)c1)N1CCc2ccc(O)cc2C1`, the figures for the Activity in data set [1], in [2] and in data set [3] were 12%, 0.5% and 3%, respectively.

As for `CCN(Cc1ccc(F)cc1)c1cccc(C(=O)N2CCc3ccc(O)cc3C2)c1`, the Activity stood at 101.3% in data set [1], 9.5% in [2] and 31.9% in data set [3].

As to `CN(CCCN1CCCCC1)c1cccc(C(=O)N2CCc3ccc(O)cc3C2)c1`, the Activity in data set [1] came to 19%; in data set [2], 2.9%; in data set [3] it was 2.5%.

With `C[C@]12CC[C@@H]3c4ccc(O)cc4CC[C@H]3[C@@H]1CC[C@@H]2O` [ESTRADIOL], the Activity in [4] amounted to 148%; in data set [6], 75.6%; in data set [5], 144%.

`CCN(Cc1ccc(Br)cc1)c1ccc(C(=O)N2CCc3ccc(O)cc3C2)cc1`: the Activity was 76.7% in [1], 0% in [2] and 10.6% in data set [3].

Take `CN(CCN1CCCCC1)c1ccc(C(=O)N2CCc3ccc(O)cc3C2)cc1`: the Activity came out at 12.2% in data set [1], 2.1% in [2] and 4.6% in data set [3].

Regarding `CN(C)CCCN(Cc1ccccc1)c1cccc(C(=O)N2CCc3ccc(O)cc3C2)c1`, the Activity is listed as 5.4% in [1], 0% in data set [2] and 0% in data set [3].

As for `CN(C)CCN(Cc1ccccc1)c1ccc(C(=O)N2CCc3ccc(O)cc3C2)cc1`, the Activity in [1] is 4.6%; in data set [2] it was 9.6%; in data set [3], 6.3%.

For `O=C(c1ccc(N2CCc3ccccc3C2)cc1)N1CCc2ccc(O)cc2C1`, the Activity is 6.3% in data set [1]; 0% in data set [2]; 1.7% in data set [3]; 133% in [4]; “Toxic” in data set [5].

As for `CCN(Cc1cccnc1)c1cccc(C(=O)N2CCc3ccc(O)cc3C2)c1`, the Activity in data set [1], in [2] and in data set [3] was 0% in each case.

With `CCN(Cc1ccc(F)cc1)c1ccc(C(=O)N2CCc3ccc(O)cc3C2)cc1`, the Activity in data set [1] was 4.8%; in data set [2] it was 0%; in [3] it was 0%; in [4] it was 152%; in data set [5] it was “Toxic”.

As for `CN(C)CCN(CCN(C)C)c1cccc(C(=O)N2CCc3ccc(O)cc3C2)c1`, the Activity in data set [1] is 84.1%; in data set [2], 0%; in [3], 14.6%.

Consider `CCN(Cc1cccc(Br)c1)c1cccc(C(=O)N2CCc3ccc(O)cc3C2)c1`, for which the Activity in [1] stood at 8.5%; in data set [2], 0%; in data set [3], 0%.

Turning to `CCN(Cc1cccnc1)c1ccc(C(=O)N2CCc3ccc(O)cc3C2)cc1`, the Activity in data set [1] is given as 0%; in data set [2] it was 0%; in data set [3], 2%; in data set [4] it was 133%; in data set [5], “Toxic”.

Consider `CCCN(CCC)c1ccc(C(=O)N2CCc3ccc(OS(N)(=O)=O)cc3C2)cc1`, for which the inhibition in data set [7] was found to be 84.7%; in [8], 36.6%. In [9], this molecule showed a logP of 3.07.

For the molecule `CC(C)CCN(CCC(C)C)c1ccc(C(=O)N2CCc3ccc(O)cc3C2)cc1`, the Activity in data set [1] was 0%; in data set [2], 0%; in data set [3], 0%; in [4] it was 133%; in [5], “Toxic”.

Turning to `O=C(c1cccc(N(Cc2ccccc2)Cc2ccco2)c1)N1CCc2ccc(O)cc2C1`, the Activity in data set [1] worked out at 80.7%; in data set [2], 44.9%; in [3], 63.3%.

In the case of `CCN(Cc1ccccc1)c1ccc(C(=O)N2CCc3ccc(OS(N)(=O)=O)cc3C2)cc1`, the figures for the inhibition in data set [7] and in data set [8] were 83.6% and 66.9%, respectively. This molecule displayed a logP in data set [9] of 3.08.

`CN(CCCN1CCCCC1)c1ccc(C(=O)N2CCc3ccc(O)cc3C2)cc1`: the Activity in data set [1], in data set [2] and in data set [3] was 0% each time.

Turning to `CN(C)CCCN(Cc1ccccc1)c1ccc(C(=O)N2CCc3ccc(O)cc3C2)cc1`, the Activity in [1] was 25.9%; in [2], 19.4%; in [3], 18.3%.

Consider `NS(=O)(=O)Oc1ccc2c(c1)CN(C(=O)c1ccc(N3CCC(Cc4ccccc4)CC3)cc1)CC2`, for which the inhibition in data set [7] was determined as 81.3%; in [8], 41.4%. Further, the logP in data set [9] stood at 3.87.

With `O=C(c1ccc(N(CCO)Cc2ccccc2)cc1)N1CCc2ccc(O)cc2C1`, the Activity in data set [1] worked out at 34.6%; in [2], 8.4%; in [3], 14.8%.

As to `CCN(Cc1ccccn1)c1cccc(C(=O)N2CCc3ccc(O)cc3C2)c1`, the Activity in data set [1] was 87.3%; in data set [2], 10.6%; in data set [3] it was 58.4%.

For `CN(C)CCN(Cc1ccccc1)c1cccc(C(=O)N2CCc3ccc(O)cc3C2)c1`, the Activity turned out to be 30.5% in data set [1], 4.1% in [2] and 7.4% in data set [3].

Turning to `CCN(Cc1cccc(Br)c1)c1ccc(C(=O)N2CCc3ccc(O)cc3C2)cc1`, the Activity in data set [1] came out at 18.3%; in [2], 1.8%; in [3], 0%.

As to `O=C(c1cccc(N(CCCO)Cc2ccccc2)c1)N1CCc2ccc(O)cc2C1`, the Activity in data set [1] is recorded as 94.2%; in data set [2] it was 0%; in [3], 14.2%.

Regarding `CCCN(Cc1ccccc1)c1cccc(C(=O)N2CCc3ccc(O)cc3C2)c1`, the Activity in data set [1] is listed as 20.8%; in [2], 1.6%; in [3], 0%.

`CCN(Cc1ccccn1)c1ccc(C(=O)N2CCc3ccc(O)cc3C2)cc1`: the Activity in [1] came to 84%; in data set [2], 2.7%; in data set [3], 0%; in data set [4] it was 147%; in data set [5], 140%.

`CN(CCN1CCCCC1)c1cccc(C(=O)N2CCc3ccc(O)cc3C2)c1`: the Activity in [1] is 5.3%; in data set [2] it was 0%; in data set [3], 0%.

Regarding `CC/C(=C(\c1ccccc1)c1ccc(OCCN(C)C)cc1)c1ccccc1` [TAMOXIFEN], the Activity in data set [4] is 143%.

Regarding `O=C(c1ccc(N(CCCO)Cc2ccccc2)cc1)N1CCc2ccc(O)cc2C1`, the results for the Activity in data set [1], in data set [2] and in data set [3] were 4%, 0% and 0%, respectively.

`O=C(c1ccc(N(Cc2ccccc2)Cc2ccco2)cc1)N1CCc2ccc(O)cc2C1`: the Activity is reported as 7.7% in data set [1]; 0% in [2]; 0% in data set [3]; 133% in [4]; “Toxic” in data set [5].

Consider `CCCN(Cc1ccccc1)c1ccc(C(=O)N2CCc3ccc(O)cc3C2)cc1`, for which the results for the Activity in data set [1], in data set [2] and in data set [3] were 8.9%, 0% and 0%, respectively.
